In patent US6573218B1, “Fused-benzene derivatives useful as herbicides” (Ishihara Sangyo Kaisha, Ltd., priority 1998, dated 2003):

What was measured:
Format in all cases: in vivo
[1] = system: barnyardgrass (Echinochloa crus-galli, ECHCG); test: Pre-emerge greenhouse herbicide test; conditions: 14 days after application, scale 0-100 (0 no damage, 100 complete death)
From the text: (§1) A standard greenhouse herbicide activity screening system was used to evaluate the herbicidal efficacy and crop safety of these test compounds. Seven broadleaf weed species including redroot pigweed (Amaranthus retroflexus, AMARE), velvetleaf (Abutilon theophrasti, ABUTH), sicklepod (Cassia obtusifolia, CASOB), ivyleaf morningglory (Ipomoea hederacea, IPOHE), lambsquarters (Chenopodium album, CHEAL), common ragweed (Ambrosia artemisiifolia L., AMBEL), and cocklebur (Xanthium strumarium, XANST) were used as test species. Four grass weed species including green foxtail (Setaria viridis, SETVI), barnyardgrass (Echinochloa crus-galli, ECHCG), johnsongrass (Sorghum halepense, SORHA), and large crabgrass (Digitaria sanguinalis, DIGSA) were also used. In addition, three crop species, field corn (Zea mays L., var. Dekalb 527, CORN), soybean (Glycine max L., var. Pella 86, SOY), and upland rice (Ory0a sp., var.Tebonnet, RICE) were included.
(§2) All plants were grown in 10 cm square plastic pots which were filled with a sandy loam soil mix. For pre-emerge tests, seeds were planted one day prior to application of the test compounds. For post-emerge tests, seeds were planted 8-21 days prior to the test to allow emergence and good foliage development prior to application of the test substances. At the time of the post-emerge application, plants of all species were usually at the 2-3 leaf stage of development.
(§3) All test compounds were dissolved in acetone and applied to the test units in a volume of 187 l/ha. Test materials were applied at rates ranging from 15 g ai/ha to 1000 g ai/ha using a track sprayer equipped with a TJ8001E even flow flat fan spray nozzle. Plants were arranged on a shelf so that the top of the canopy (post-emerge) or top of the soil surface (pre-emerge) was 40-45 cm below the nozzle. Pressurized air was used to force the test solution through the nozzle as it was mechanically advanced over the top of all test plants/pots. This application simulates a typical commercial field herbicide application.
(§4) In the post-emerge test, a commercial non-ionic surfactant was also included (0.25% v/v) to enhance wetting of the leaf surfaces of target plants. Immediately after application, test units of the pre-emerge applications were watered at the soil surface to incorporate the test materials.
(§5) At 14 days after application of the test materials, phytotoxicity ratings were recorded. A rating scale of 0-100 was used as previously described in Research Methods in Weed Science, 2nd edition, B. Truelove, Ed., Southern Weed Science Society, Auburn University, Auburn, Ala., 1977. Briefly, “0” corresponds to no damage and “100” corresponds to complete death of all plants in the test unit. This scale was used both to determine efficacy against weed species and damage to crop species. Herbicide activity data for various compounds of this invention, which are shown by compound No. in Tables 1-14, are shown in Tables 16 and 17.

[2] = system: green foxtail (Setaria viridis, SETVI); test: Pre-emerge greenhouse herbicide test; conditions: 14 days after application, scale 0-100 (0 no damage, 100 complete death)
From the text: as §1, §2, §3, §4, §5

[3] = system: ivyleaf morningglory (Ipomoea hederacea, IPOHE); test: Pre-emerge greenhouse herbicide test; conditions: 14 days after application, scale 0-100 (0 no damage, 100 complete death)
From the text: as §1, §2, §3, §4, §5

[4] = system: lambsquarters (Chenopodium album, CHEAL); test: Pre-emerge greenhouse herbicide test; conditions: 14 days after application, scale 0-100 (0 no damage, 100 complete death)
From the text: as §1, §2, §3, §4, §5

[5] = system: large crabgrass (Digitaria sanguinalis, DIGSA); test: Pre-emerge greenhouse herbicide test; conditions: 14 days after application, scale 0-100 (0 no damage, 100 complete death)
From the text: as §1, §2, §3, §4, §5

[6] = system: redroot pigweed (Amaranthus retroflexus, AMARE); test: Pre-emerge greenhouse herbicide test; conditions: 14 days after application, scale 0-100 (0 no damage, 100 complete death)
From the text: as §1, §2, §3, §4, §5

[7] = system: sicklepod (Cassia obtusifolia, CASOB); test: Pre-emerge greenhouse herbicide test; conditions: 14 days after application, scale 0-100 (0 no damage, 100 complete death)
From the text: as §1, §2, §3, §4, §5

[8] = system: velvetleaf (Abutilon theophrasti, ABUTH); test: Pre-emerge greenhouse herbicide test; conditions: 14 days after application, scale 0-100 (0 no damage, 100 complete death)
From the text: as §1, §2, §3, §4, §5

[9] = system: field corn (Zea mays L., var. Dekalb 527, CORN); test: Pre-emerge greenhouse crop damage test
From the text: as §1, §2, §3, §4, §5

[10] = system: soybean (Glycine max L., var. Pella 86, SOY); test: Pre-emerge greenhouse crop damage test
From the text: as §1, §2, §3, §4, §5

[11] = system: upland rice (Ory0a sp., var.Tebonnet, RICE); test: Pre-emerge greenhouse crop damage test
From the text: as §1, §2, §3, §4, §5

[12] = system: barnyardgrass (Echinochloa crus-galli, ECHCG); test: Post-emerge greenhouse herbicide test; conditions: 14 days after application
From the text: as §1, §2, §3, §4, §5

[13] = system: green foxtail (Setaria viridis, SETVI); test: Post-emerge greenhouse herbicide test; conditions: 14 days after application
From the text: as §1, §2, §3, §4, §5

[14] = system: ivyleaf morningglory (Ipomoea hederacea, IPOHE); test: Post-emerge greenhouse herbicide test; conditions: 14 days after application
From the text: as §1, §2, §3, §4, §5

[15] = system: lambsquarters (Chenopodium album, CHEAL); test: Post-emerge greenhouse herbicide test; conditions: 14 days after application
From the text: as §1, §2, §3, §4, §5

[16] = system: large crabgrass (Digitaria sanguinalis, DIGSA); test: Post-emerge greenhouse herbicide test; conditions: 14 days after application
From the text: as §1, §2, §3, §4, §5

[17] = system: redroot pigweed (Amaranthus retroflexus, AMARE); test: Post-emerge greenhouse herbicide test; conditions: 14 days after application
From the text: as §1, §2, §3, §4, §5

[18] = system: sicklepod (Cassia obtusifolia, CASOB); test: Post-emerge greenhouse herbicide test; conditions: 14 days after application
From the text: as §1, §2, §3, §4, §5

[19] = system: velvetleaf (Abutilon theophrasti, ABUTH); test: Post-emerge greenhouse herbicide test; conditions: 14 days after application
From the text: as §1, §2, §3, §4, §5

[20] = system: field corn (Zea mays L., var. Dekalb 527, CORN); test: Post-emerge greenhouse crop damage test
From the text: as §1, §2, §3, §4, §5

[21] = system: soybean (Glycine max L., var. Pella 86, SOY); test: Post-emerge greenhouse crop damage test
From the text: as §1, §2, §3, §4, §5

[22] = system: upland rice (Ory0a sp., var.Tebonnet, RICE); test: Post-emerge greenhouse crop damage test
From the text: as §1, §2, §3, §4, §5

[23] = system: johnsongrass (Sorghum halepense, SORHA); test: Pre-emerge greenhouse herbicide test; conditions: 250 g ai/ha, 14 days after application, scale 0-100 (0 no damage, 100 complete death)
From the text: as §1, §2, §3, §4, §5

[24] = var. Dekalb 527, field corn (Zea mays L.), in vivo, 14 days
[25] = var. Pella 86, soybean (Glycine max L.), in vivo, 14 days
[26] = var. Tebonnet, upland rice (Ory0a sp.), in vivo, 14 days
[27] = 250 g ai/ha, post-emerge, 14 days after application
[28] = pre-emerge, 250 g ai/ha, 14 days after application, scale 0-100 (0 no damage, 100 complete death)

Cn1c(C(F)(F)F)cc(=O)n(-c2ccc(Cl)c3ccccc23)c1=O [Compound 5-1, 3-(4-Chloronaphthalen-1-yl)-1-methyl-6-trifluoromethyl-2,4(1H,3H)-pyrimidindione]
Pre-emerge Herbicidal Activity ECHCG (phytotoxicity rating) ([1]; 500 g ai/ha): 60
Pre-emerge Herbicidal Activity SETVI (phytotoxicity rating) ([2]; 500 g ai/ha): 100
Pre-emerge Herbicidal Activity IPOHE (phytotoxicity rating) ([3]; 500 g ai/ha): 60
Pre-emerge Herbicidal Activity CHEAL (phytotoxicity rating) ([4]; 500 g ai/ha): 100
Pre-emerge Herbicidal Activity DIGSA (phytotoxicity rating) ([5]; 500 g ai/ha): 98
Pre-emerge Herbicidal Activity AMARE (phytotoxicity rating) ([6]; 500 g ai/ha): 100
Pre-emerge Herbicidal Activity CASOB (phytotoxicity rating) ([7]; 500 g ai/ha): 60
Pre-emerge Herbicidal Activity ABUTH (phytotoxicity rating) ([8]; 500 g ai/ha): 100
Pre-emerge Herbicidal Activity CORN (crop damage rating) [9, 24]: 70
Pre-emerge Herbicidal Activity SOY (crop damage rating) [10, 25]: 70
Pre-emerge Herbicidal Activity RICE (crop damage rating) [11, 26]: 70
Post-emerge Herbicidal Activity ECHCG (phytotoxicity rating 0-100) ([12]; 500 g ai/ha): 70
Post-emerge Herbicidal Activity SETVI (phytotoxicity rating 0-100) ([13]; 500 g ai/ha): 100
Post-emerge Herbicidal Activity IPOHE (phytotoxicity rating 0-100) ([14]; 500 g ai/ha): 60
Post-emerge Herbicidal Activity CHEAL (phytotoxicity rating 0-100) ([15]; 500 g ai/ha): 100
Post-emerge Herbicidal Activity DIGSA (phytotoxicity rating 0-100) ([16]; 500 g ai/ha): 60
Post-emerge Herbicidal Activity AMARE (phytotoxicity rating 0-100) ([17]; 500 g ai/ha): 100
Post-emerge Herbicidal Activity CASOB (phytotoxicity rating 0-100) ([18]; 500 g ai/ha): 60
Post-emerge Herbicidal Activity ABUTH (phytotoxicity rating 0-100) ([19]; 500 g ai/ha): 100
Post-emerge crop damage CORN (phytotoxicity rating 0-100) [20, 24]: 0
Post-emerge crop damage SOY (phytotoxicity rating 0-100) [21, 25]: 0
Post-emerge crop damage RICE (phytotoxicity rating 0-100) [22, 26]: 0

CCc1nc2c(N3C(=O)C4CCCCN4C3=S)c(F)cc(Cl)c2o1 (single isomer, unassigned) [Compound 7-6, 8-(7-Chloro-2-ethyl-5-fluorobenzoxazol-4-yl)-1,8-diazobicyclo[4,3,0]nonane-7-one-9-thione]
Post-emerge Herbicidal Activity ECHCG (phytotoxicity rating 0-100) ([12]; 250 g ai/ha): 0
Post-emerge Herbicidal Activity SETVI (phytotoxicity rating 0-100) ([13]; 250 g ai/ha): 10
Post-emerge Herbicidal Activity IPOHE (phytotoxicity rating 0-100) ([14]; 250 g ai/ha): 70
Post-emerge Herbicidal Activity CHEAL (phytotoxicity rating 0-100) ([15]; 250 g ai/ha): 60
Post-emerge Herbicidal Activity DIGSA (phytotoxicity rating 0-100) ([16]; 250 g ai/ha): 0
Post-emerge Herbicidal Activity AMARE (phytotoxicity rating 0-100) ([17]; 250 g ai/ha): 30
Post-emerge Herbicidal Activity CASOB (phytotoxicity rating 0-100) ([18]; 250 g ai/ha): 30
Post-emerge Herbicidal Activity ABUTH (phytotoxicity rating 0-100) ([19]; 250 g ai/ha): 90
Post-emerge crop damage CORN (phytotoxicity rating 0-100) [20, 27]: 30
Post-emerge crop damage SOY (phytotoxicity rating 0-100) ([21]; in vivo): 50
Post-emerge crop damage RICE (phytotoxicity rating 0-100) [22, 27]: 10

CCc1nc2c(N3C(=O)C4CCCCN4C3=O)c(F)cc(Cl)c2o1 (stereo not shown) [Compound 7-9]
Pre-emerge Herbicidal Activity ECHCG (phytotoxicity rating) ([1]; 250 g ai/ha): 10
Pre-emerge Herbicidal Activity SETVI (phytotoxicity rating) ([2]; 250 g ai/ha): 40
Pre-emerge Herbicidal Activity IPOHE (phytotoxicity rating) ([3]; 250 g ai/ha): 20
Pre-emerge Herbicidal Activity CHEAL (phytotoxicity rating) ([4]; 250 g ai/ha): 100
Pre-emerge Herbicidal Activity DIGSA (phytotoxicity rating) ([5]; 250 g ai/ha): 30
Pre-emerge Herbicidal Activity AMARE (phytotoxicity rating) ([6]; 250 g ai/ha): 100
Pre-emerge Herbicidal Activity CASOB (phytotoxicity rating) ([7]; 250 g ai/ha): 10
Pre-emerge Herbicidal Activity ABUTH (phytotoxicity rating) ([8]; 250 g ai/ha): 50
Pre-emerge Herbicidal Activity CORN (crop damage rating) [9, 28]: 0
Pre-emerge Herbicidal Activity SOY (crop damage rating) [10, 28]: 15
Pre-emerge Herbicidal Activity RICE (crop damage rating) [11, 28]: 10

Nn1c(C(F)(F)F)cc(=O)n(-c2c(F)cc(Cl)c3c2NC(=O)CO3)c1=O [Compound 4-2]
Pre-emerge Herbicidal Activity ECHCG (phytotoxicity rating) ([1]; 250 g ai/ha): 80
Pre-emerge Herbicidal Activity SETVI (phytotoxicity rating) ([2]; 250 g ai/ha): 80
Pre-emerge Herbicidal Activity IPOHE (phytotoxicity rating) ([3]; 250 g ai/ha): 100
Pre-emerge Herbicidal Activity SORHA (phytotoxicity rating) [23]: 65
Pre-emerge Herbicidal Activity CHEAL (phytotoxicity rating) ([4]; 250 g ai/ha): 100
Pre-emerge Herbicidal Activity DIGSA (phytotoxicity rating) ([5]; 250 g ai/ha): 70
Pre-emerge Herbicidal Activity AMARE (phytotoxicity rating) ([6]; 250 g ai/ha): 100
Pre-emerge Herbicidal Activity CASOB (phytotoxicity rating) ([7]; 250 g ai/ha): 100
Pre-emerge Herbicidal Activity ABUTH (phytotoxicity rating) ([8]; 250 g ai/ha): 100
Pre-emerge Herbicidal Activity CORN (crop damage rating) [9, 28]: 100
Pre-emerge Herbicidal Activity SOY (crop damage rating) [10, 28]: 95
Pre-emerge Herbicidal Activity RICE (crop damage rating) ([11]; in vivo): 90
Post-emerge Herbicidal Activity ECHCG (phytotoxicity rating 0-100) ([12]; 250 g ai/ha): 60
Post-emerge Herbicidal Activity SETVI (phytotoxicity rating 0-100) ([13]; 250 g ai/ha): 40
Post-emerge Herbicidal Activity IPOHE (phytotoxicity rating 0-100) ([14]; 250 g ai/ha): 100
Post-emerge Herbicidal Activity CHEAL (phytotoxicity rating 0-100) ([15]; 250 g ai/ha): 100
Post-emerge Herbicidal Activity DIGSA (phytotoxicity rating 0-100) ([16]; 250 g ai/ha): 20
Post-emerge Herbicidal Activity AMARE (phytotoxicity rating 0-100) ([17]; 250 g ai/ha): 100
Post-emerge Herbicidal Activity CASOB (phytotoxicity rating 0-100) ([18]; 250 g ai/ha): 90
Post-emerge Herbicidal Activity ABUTH (phytotoxicity rating 0-100) ([19]; 250 g ai/ha): 100
Post-emerge crop damage CORN (phytotoxicity rating 0-100) [20, 27]: 90
Post-emerge crop damage SOY (phytotoxicity rating 0-100) [21, 27]: 100
Post-emerge crop damage RICE (phytotoxicity rating 0-100) [22, 27]: 90
